{
  "source": "paper PMC8728441",
  "about": "“Biosynthesis of the redox cofactor mycofactocin is controlled by the transcriptional regulator MftR and induced by long-chain acyl-CoA species” (The Journal of Biological Chemistry, 2021)",
  "key": {"[1]": {"test_system": "MftR–Omft complex", "assay": "Competitive EMSA screen for effectors of MftR", "type": "binding, Mycobacterium smegmatis mc^2155", "settings": "6-FAM Omft 0.5 μM, MftR 5 μM, effectors 100 μM", "description": "Next, we assessed which metabolites activate MftR and thus could induce MFT production. To do so, we carried out competitive EMSAs where FAM-labeled Omft and MftR were incubated in the presence of potential effectors. We initially chose our effectors based on cholesterol catabolism, a process that putatively includes MFT biosynthetic genes ([38]). […] Knowing that TFRs have a propensity to be activated by fatty acyl-CoAs ([20]), we expanded our effector screening to include short-chain, medium-chain, and long-chain acyl-CoAs.\nFigure 4 Effectors of MftR.A, an EMSA used to screen effectors of MftR. The 6-FAM–labeled Omft region (0.5 μM) was incubated with the MftR (5 μM) in the absence or the presence of effectors (100 μM). Protein–DNA complexes were separated by electrophoresis on 5% polyacrylamide gel. […] B, a representative isothermal titration calorimetry thermogram for the binding of the oleoyl-CoA to MftR regulator (blue) and the control of oleoyl-CoA into buffer (red). Each peak corresponds to the injection of 2.22 μl of 250 μM oleoyl-CoA into the cell containing 16 μM MftR or buffer. The integrated thermogram (blue dots) was fitted to a single-site binding model (black line) to determine the Kd. […] C, a bar graph depicting the ITC measured Kds for various acyl-CoAs. Bars represent the mean of three independent experiments, and the error bars represent the standard deviation of the experiments. 6-FAM, 6-carboxyfluorescein; ITC, isothermal titration calorimetry; Omft, mft operator.\nHis-tagged MftR was used to assess the protein binding to Pmft–MftA promoter fragment. DNA was mixed with increasing concentrations of the MftR protein in the reaction buffer (50 mM Hepes, 50 mM NaCl 0.1 mM EDTA, and pH 7.5) and incubated at room temperature for 10 min. The reactions were resolved by electrophoresis on a 5% (v/v) nondenaturing polyacrylamide gel in 1× Tris/borate/EDTA buffer at 200 V for 20 min on ice. Prior to the analysis, the gel was prerun for 30 min at 150 V on ice. Results were visualized by GelRed and recorded using Azure Biosystems 600 imaging system."}, "[2]": {"target": "MftR (WT) (Mycolicibacterium smegmatis, UniProt A0QSB5)", "sequence (A0QSB5 entry or part of it)": "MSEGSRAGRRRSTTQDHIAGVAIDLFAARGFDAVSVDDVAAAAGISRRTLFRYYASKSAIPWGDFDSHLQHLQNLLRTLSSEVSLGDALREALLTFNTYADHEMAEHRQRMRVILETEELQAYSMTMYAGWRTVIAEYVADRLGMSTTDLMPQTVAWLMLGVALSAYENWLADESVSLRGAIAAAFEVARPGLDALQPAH", "assay": "ITC binding of acyl-CoAs to MftR", "design": "species or system Mycobacterium smegmatis mc^2155", "description": "ITC was performed using TA Nano ITC. MftR was loaded in the sample cell at the concentration of 16 and 250 μM acyl-CoAs (C12–C18) loaded in the syringe. To minimize the effect of buffer mismatch, the stock concentration of acyl-CoAs was prepared using ITC buffer (50 mM Hepes, 50 mM NaCl, and pH 7.5), and the pH was adjusted to within 0.05 units. In addition, MftR was buffer exchanged into ITC buffer using a PD-10 column (GE Life Sciences). The volume of the titrant added at each injection into the sample cell was 2.22 μl. The time interval between the successive injections was 180 s. The temperature of the cell was kept at 25 °C. The data obtained were fit by independent one-site model using NanoAnalyze Data Analysis, version 3.8.0, that was provided with the instrument."}, "[3]": {"test_system": "mft BGC (MftA–mCherry reporter)", "assay": "Spot test growth analysis with Pmft–pCherry reporter", "type": "cell-based, Mycobacterium smegmatis mc^2155", "settings": "7H9 with 0.05% w/v each glucose and OA, compared with glucose alone", "description": "To directly establish that oleoyl-CoA induces MFT biosynthesis in vivo, a colony dilution experiment was carried out using Msmeg transformed with Pmft–pCherry grown on Middlebrook 7H9 (7H9) supplemented with glucose or oleic acid (OA). We used OA in the growth media since it is well known that bacterial fatty acid shuttle systems convert free fatty acids to the corresponding acyl-CoAs and since Msmeg encodes for at least two known fatty acid transporters ([48], [49]). […] To assess when this occurs in real time, growth curve assays with Msmeg/Pmft–pCherry were carried out. […] We observed the same effect when OA was added to the media after 12 h of incubation. Next, we determined if MFT induction is dependent on the concentration of OA. We carried out a titration series of growth curves where 7H9 media were supplemented with 0.05% w/v glucose and 0.01, 0.02, 0.05, or 0.1% w/v OA. […]\nFigure 6 Induction of MFT biosynthesis by oleoyl-CoA in vivo. […] Fluorescence images were obtained simultaneously from two different petri dishes using 585 nm excitation and 635 nm emission wavelengths. […]\nA single time point growth assay was standardized for the growth of Msmeg on 7H9 agar plates with various carbon sources supplemented. […] The absorbance was measured and converted to colony-forming units (CFUs) using the standard 3.13 × 10^7 CFU·ml^−1·absorbance^−1 conversion factor ([58]). […]"}, "[4]": {"test_system": "mft BGC (MftA–mCherry reporter)", "assay": "Growth curve assays with Msmeg/Pmft–pCherry", "type": "cell-based, Mycobacterium smegmatis mc^2155", "description": "To directly establish that oleoyl-CoA induces MFT biosynthesis in vivo, a colony dilution experiment was carried out using Msmeg transformed with Pmft–pCherry grown on Middlebrook 7H9 (7H9) supplemented with glucose or oleic acid (OA). We used OA in the growth media since it is well known that bacterial fatty acid shuttle systems convert free fatty acids to the corresponding acyl-CoAs and since Msmeg encodes for at least two known fatty acid transporters ([48], [49]). […] To assess when this occurs in real time, growth curve assays with Msmeg/Pmft–pCherry were carried out. […] We observed the same effect when OA was added to the media after 12 h of incubation. Next, we determined if MFT induction is dependent on the concentration of OA. We carried out a titration series of growth curves where 7H9 media were supplemented with 0.05% w/v glucose and 0.01, 0.02, 0.05, or 0.1% w/v OA. […] However, in general, increasing concentrations of OA had little effect on the overall production of the MftA–mCherry fusion. The lack of immediate production of MftA–mCherry after the addition of OA and the concentration independence is perplexing. […] Rather, we expect that a subtler and unknown mechanism is at play.\nFigure 7 Growth curve assays with Msmeg/Pmft–pCherry.A, absorbance at 600 nm measurements for the 7H9 media supplemented with 0.1% tyloxapol, 50 μg/ml hygromycin, and glucose and/or oleic acid (OA) as carbon sources. Concentrations of carbon sources were glucose only (0.1% w/v), OA only (0.1% w/v), and glucose/OA (0.05% w/v each) where OA was added after 12 h (blue arrow). B, corresponding fluorescence intensities (excitation of 585 nm/emission of 612 nm) of Msmeg/Pmft–pCherry cultures described in A. C, absorbance at 600 nm measurements for dose-dependent addition of OA to the 7H9 media supplemented with 0.05% w/v glucose and 0.01, 0.02, 0.05, 0.1% w/v of OA. D, corresponding fluorescence intensities of Msmeg/Pmft–pCherry cultures described in C. 7H9, Middlebrook 7H9; Msmeg, Mycobacterium smegmatis mc^2155; Pmft, mft promoter.\nFor fluorescence-based assays, a single Msmeg colony harboring Pmft–pCherry was used to inoculate 25 ml of 7H9 media supplemented with 0.1% tyloxapol, 0.1% w/v glycerol, 50 μg/ml hygromycin, and 0.1% w/v glucose. For cultures containing OA only, 0.1% w/v OA was used. […] The overnight culture was used to inoculate 7H9 media to an absorbance of 0.05 at 600 nm (1 cm pathlength) with carbon sources supplemented as described previously. […] Aliquots were taken every 2 h, and absorbance at 600 nm values were measured. To track the expression of the Pmft–pCherry fusion, fluorescence measurements were taken on a Cary Fluorimeter every 2 h using an excitation of 585 nm and an emission of 612 nm."}},
  "note": "pKd: −log10 of the molar value.",
  "data": [
    {"compound": "CCCCCCCCCCCCCC(=O)SCCNC(=O)CCNC(=O)[C@H](O)C(C)(C)COP(=O)(O)OP(=O)(O)OC[C@H]1O[C@@H](n2cnc3c(N)ncnc32)[C@H](O)[C@@H]1OP(=O)(O)O", "note": "[myristoyl-CoA]", "values": [
      {"measurement": "disruption of the MftR–Omft complex (DNA release)", "setting": "[1]", "value": "disrupted the MftR–Omft complex"}
    ]},
    {"compound": "CCCCCCCCCCCCCCCC(=O)SCCNC(=O)CCNC(=O)[C@H](O)C(C)(C)COP(=O)(O)OP(=O)(O)OC[C@H]1O[C@@H](n2cnc3c(N)ncnc32)[C@H](O)[C@@H]1OP(=O)(O)O", "note": "[palmitoyl-CoA]", "values": [
      {"measurement": "pKd", "setting": "[2]", "value": "5.40 to 5.70"}
    ]},
    {"compound": "CC(C)CCC[C@@H](C)[C@H]1CC[C@H]2[C@@H]3CC=C4C[C@@H](O)CC[C@]4(C)[C@H]3CC[C@]12C", "note": "[cholesterol]", "values": [
      {"measurement": "disruption of the MftR–Omft complex (DNA release)", "setting": "[1]", "value": "did not observe DNA release"}
    ]},
    {"compound": "succinyl-CoA", "values": [
      {"measurement": "disruption of the MftR–Omft complex (DNA release)", "setting": "[1]", "value": "did not observe DNA release"}
    ]},
    {"compound": "CCCCCCCC/C=C\\CCCCCCCC(=O)O", "note": "[OA, oleic acid]", "values": [
      {"measurement": "fluorescence intensity of colonies", "setting": "[3]", "value": "starkly increased"},
      {"measurement": "fluorescence intensity in OA titration series", "setting": "[4]; 0.05% w/v OA with 0.05% w/v glucose, within 40 h", "value": "highest fluorescence intensity"},
      {"measurement": "fluorescence intensity compared with the control", "setting": "[4]; 0.1% OA only, cultures at nearly the same absorbance", "value": "nearly three times"},
      {"measurement": "fluorescence intensity", "setting": "[4]; OA added to the media after 12 h of incubation (glucose/OA 0.05% w/v each)", "value": "same effect"},
      {"measurement": "overall production of the MftA–mCherry fusion", "setting": "[4]; increasing OA 0.01, 0.02, 0.05, 0.1% w/v with 0.05% w/v glucose", "value": "little effect"}
    ]},
    {"compound": "CCC(=O)SCCNC(=O)CCNC(=O)[C@H](O)C(C)(C)COP(=O)(O)OP(=O)(O)OC[C@H]1O[C@@H](n2cnc3c(N)ncnc32)[C@H](O)[C@@H]1OP(=O)(O)O", "note": "[propionyl-CoA]", "values": [
      {"measurement": "disruption of the MftR–Omft complex (DNA release)", "setting": "[1]", "value": "did not observe DNA release"}
    ]},
    {"compound": "CCCCCCCCCCCC(=O)SCCNC(=O)CCNC(=O)[C@H](O)C(C)(C)COP(=O)(O)OP(=O)(O)OC[C@H]1O[C@@H](n2cnc3c(N)ncnc32)[C@H](O)[C@@H]1OP(=O)(O)O", "note": "[lauroyl-CoA]", "values": [
      {"measurement": "decrease in binding affinity as compared with oleoyl-CoA", "setting": "[2]; ITC, WT MftR", "value": "~10", "unit": "fold"}
    ]},
    {"compound": "CC(=O)CC(=O)SCCNC(=O)CCNC(=O)[C@H](O)C(C)(C)COP(=O)(O)OP(=O)(O)OC[C@H]1O[C@@H](n2cnc3c(N)ncnc32)[C@H](O)[C@@H]1OP(=O)(O)O", "note": "[acetoacetyl-CoA]", "values": [
      {"measurement": "disruption of the MftR–Omft complex (DNA release)", "setting": "[1]", "value": "did not observe DNA release"}
    ]},
    {"compound": "CC(C)(COP(=O)(O)OP(=O)(O)OC[C@H]1O[C@@H](n2cnc3c(N)ncnc32)[C@H](O)[C@@H]1OP(=O)(O)O)[C@@H](O)C(=O)NCCC(=O)NCCS", "note": "[CoA]", "values": [
      {"measurement": "disruption of the MftR–Omft complex (DNA release)", "setting": "[1]", "value": "did not disrupt the MftR–Omft complex"}
    ]},
    {"compound": "CCCCCCCCCCCCCCCCCC(=O)SCCNC(=O)CCNC(=O)[C@H](O)C(C)(C)COP(=O)(O)OP(=O)(O)OC[C@H]1O[C@@H](n2cnc3c(N)ncnc32)[C@H](O)[C@@H]1OP(=O)(O)O", "note": "[steroyl-CoA]", "values": [
      {"measurement": "pKd", "setting": "[2]", "value": "5.40 to 5.70"}
    ]}
  ]
}
